# Test results: patent US6534524B1, “Indazole compounds and pharmaceutical compositions for inhibiting protein kinases, and methods for their use” (Agouron Pharmaceuticals, Inc., priority 1999, dated 2003)
# System: human umbilical vein endothelial cells (HUVEC)
# Assay: HUVEC proliferation assay (VEGF-stimulated, MTT)
# Type: cell-based
# Settings: Library III; HUVEC proliferation; nominal concentration of 0.5 nM; crude reaction mixtures
row,Compound,% inhibition [%]
1,O=C(Nc1cc(O)[nH]n1)c1ccccc1Sc1ccc2c(/C=C/c3ccccn3)n[nH]c2c1,−17
2,O=C(Nc1cc(O)c2ccccc2n1)c1ccccc1Sc1ccc2c(/C=C/c3ccccn3)n[nH]c2c1,4
3,C[n+]1ccc(NC(=O)c2ccccc2Sc2ccc3c(/C=C/c4ccccn4)n[nH]c3c2)cc1,0
4,N#Cc1nc(NC(=O)c2ccccc2Sc2ccc3c(/C=C/c4ccccn4)n[nH]c3c2)[nH]c1C#N,−28
5,NC(=O)c1ccccc1NC(=O)c1ccccc1Sc1ccc2c(/C=C/c3ccccn3)n[nH]c2c1,7
6,O=C(Nc1cccc(O)c1)c1ccccc1Sc1ccc2c(/C=C/c3ccccn3)n[nH]c2c1,−6
7,NC(=O)c1ccc(NC(=O)c2ccccc2Sc2ccc3c(/C=C/c4ccccn4)n[nH]c3c2)cc1,2
8,O=C(Nc1cccc(CO)c1)c1ccccc1Sc1ccc2c(/C=C/c3ccccn3)n[nH]c2c1,14
9,O=C(Nc1ccc(CCO)cc1)c1ccccc1Sc1ccc2c(/C=C/c3ccccn3)n[nH]c2c1,10
10,COc1ccc(NC(=O)c2ccccc2Sc2ccc3c(/C=C/c4ccccn4)n[nH]c3c2)cn1,−20
11,O=C(Nc1ccncn1)c1ccccc1Sc1ccc2c(/C=C/c3ccccn3)n[nH]c2c1,−10
12,NC(=O)c1cccc(NC(=O)c2ccccc2Sc2ccc3c(/C=C/c4ccccn4)n[nH]c3c2)c1,4
13,O=C(Nc1ccccc1CCO)c1ccccc1Sc1ccc2c(/C=C/c3ccccn3)n[nH]c2c1,10
14,CC(=O)c1ccccc1NC(=O)c1ccccc1Sc1ccc2c(/C=C/c3ccccn3)n[nH]c2c1,−7
15,COc1ccc(CCNC(=O)c2ccccc2Sc2ccc3c(/C=C/c4ccccn4)n[nH]c3c2)cc1OC,−3
16,O=C(NCc1ccc(Cl)cc1)c1ccccc1Sc1ccc2c(/C=C/c3ccccn3)n[nH]c2c1,4
17,COc1cccc(CCNC(=O)c2ccccc2Sc2ccc3c(/C=C/c4ccccn4)n[nH]c3c2)c1,8
18,COc1cccc(CNC(=O)c2ccccc2Sc2ccc3c(/C=C/c4ccccn4)n[nH]c3c2)c1OC,10
19,COc1ccc(CNC(=O)c2ccccc2Sc2ccc3c(/C=C/c4ccccn4)n[nH]c3c2)cc1OC,7
20,CCOc1ccccc1CNC(=O)c1ccccc1Sc1ccc2c(/C=C/c3ccccn3)n[nH]c2c1,−9
21,Nc1ccccc1CNC(=O)c1ccccc1Sc1ccc2c(/C=C/c3ccccn3)n[nH]c2c1,46

row,Compound,% inhibition [%]
1,O=C(NCCc1ccccc1F)c1ccccc1Sc1ccc2c(/C=C/c3ccccn3)n[nH]c2c1,2
2,O=C(NCc1cccs1)c1ccccc1Sc1ccc2c(/C=C/c3ccccn3)n[nH]c2c1,23
3,Nc1cccc(F)c1CNC(=O)c1ccccc1Sc1ccc2c(/C=C/c3ccccn3)n[nH]c2c1,11
4,COc1cccc(OC)c1CNC(=O)c1ccccc1Sc1ccc2c(/C=C/c3ccccn3)n[nH]c2c1,−10
5,CC(=O)Nc1ccc(NC(=O)c2ccccc2Sc2ccc3c(/C=C/c4ccccn4)n[nH]c3c2)cc1,−4
6,O=C(NCc1ccccc1Cl)c1ccccc1Sc1ccc2c(/C=C/c3ccccn3)n[nH]c2c1,7
7,O=C(NCCc1ccccc1Cl)c1ccccc1Sc1ccc2c(/C=C/c3ccccn3)n[nH]c2c1,9
8,COc1ccccc1CCNC(=O)c1ccccc1Sc1ccc2c(/C=C/c3ccccn3)n[nH]c2c1,10
9,O=C(Nc1ccc2[nH]c(=O)[nH]c2c1)c1ccccc1Sc1ccc2c(/C=C/c3ccccn3)n[nH]c2c1,15
10,O=C(Nc1ccc(CO)cc1)c1ccccc1Sc1ccc2c(/C=C/c3ccccn3)n[nH]c2c1,−18
11,O=C(NCCCCCO)c1ccccc1Sc1ccc2c(/C=C/c3ccccn3)n[nH]c2c1,−2
12,O=C(NCc1cccc2ccccc12)c1ccccc1Sc1ccc2c(/C=C/c3ccccn3)n[nH]c2c1,5
13,Cc1cccc2sc(NC(=O)c3ccccc3Sc3ccc4c(/C=C/c5ccccn5)n[nH]c4c3)nc12,−13
14,Cc1ccc2nc(NC(=O)c3ccccc3Sc3ccc4c(/C=C/c5ccccn5)n[nH]c4c3)sc2c1,−9
15,CC(=O)c1sc(NC(=O)c2ccccc2Sc2ccc3c(/C=C/c4ccccn4)n[nH]c3c2)nc1C,−2
16,CC(C)(C)c1csc(NC(=O)c2ccccc2Sc2ccc3c(/C=C/c4ccccn4)n[nH]c3c2)n1,−6
17,CCSc1nnc(NC(=O)c2ccccc2Sc2ccc3c(/C=C/c4ccccn4)n[nH]c3c2)s1,17
18,Cc1cc(NC(=O)c2ccccc2Sc2ccc3c(/C=C/c4ccccn4)n[nH]c3c2)sn1,19
19,O=C(N[C@H]1CC[C@H](O)CC1)c1ccccc1Sc1ccc2c(/C=C/c3ccccn3)n[nH]c2c1,18
20,CCOC(=O)N1CCC(NC(=O)c2ccccc2Sc2ccc3c(/C=C/c4ccccn4)n[nH]c3c2)CC1,−24
21,O=C(NCCc1ccc(Cl)cc1)c1ccccc1Sc1ccc2c(/C=C/c3ccccn3)n[nH]c2c1,0

row,Compound,% inhibition [%]
1,O=C(NC1CCCCC1O)c1ccccc1Sc1ccc2c(/C=C/c3ccccn3)n[nH]c2c1 (centres unmarked),−6
2,O=C(Nc1cc(O)nc(O)n1)c1ccccc1Sc1ccc2c(/C=C/c3ccccn3)n[nH]c2c1,3
3,Cc1nnc(NC(=O)c2ccccc2Sc2ccc3c(/C=C/c4ccccn4)n[nH]c3c2)nc1C,−20
4,CCOC(=O)CNC(=O)c1ccccc1Sc1ccc2c(/C=C/c3ccccn3)n[nH]c2c1,−16
5,C#CC1(NC(=O)c2ccccc2Sc2ccc3c(/C=C/c4ccccn4)n[nH]c3c2)CCCCC1,3
6,Cc1cnc(CNC(=O)c2ccccc2Sc2ccc3c(/C=C/c4ccccn4)n[nH]c3c2)cn1,6
7,O=C(NCCc1c[nH]c2ccccc12)c1ccccc1Sc1ccc2c(/C=C/c3ccccn3)n[nH]c2c1,18
8,CC(CO)(CO)NC(=O)c1ccccc1Sc1ccc2c(/C=C/c3ccccn3)n[nH]c2c1,−18
9,COC(=O)c1ccc(C)c(NC(=O)c2ccccc2Sc2ccc3c(/C=C/c4ccccn4)n[nH]c3c2)c1,−9
10,O=C(NCc1ccc2c(c1)CCO2)c1ccccc1Sc1ccc2c(/C=C/c3ccccn3)n[nH]c2c1,14
11,CSc1ccccc1NC(=O)c1ccccc1Sc1ccc2c(/C=C/c3ccccn3)n[nH]c2c1,−10
12,CSc1ccc(NC(=O)c2ccccc2Sc2ccc3c(/C=C/c4ccccn4)n[nH]c3c2)cc1,−7
13,O=C(Nc1ncccc1O)c1ccccc1Sc1ccc2c(/C=C/c3ccccn3)n[nH]c2c1,4
14,COc1cccc(NC(=O)c2ccccc2Sc2ccc3c(/C=C/c4ccccn4)n[nH]c3c2)c1,11
15,Cc1cc(NC(=O)c2ccccc2Sc2ccc3c(/C=C/c4ccccn4)n[nH]c3c2)n[nH]1,11
16,CSc1cccc(NC(=O)c2ccccc2Sc2ccc3c(/C=C/c4ccccn4)n[nH]c3c2)c1,8
17,CC(C)(C)NC(=O)c1ccccc1Sc1ccc2c(/C=C/c3ccccn3)n[nH]c2c1,23
18,O=C(NCCc1cccc(Cl)c1)c1ccccc1Sc1ccc2c(/C=C/c3ccccn3)n[nH]c2c1,0
19,O=C(NCc1ccc(F)cc1)c1ccccc1Sc1ccc2c(/C=C/c3ccccn3)n[nH]c2c1,57
20,O=C(NCc1cccc(Cl)c1)c1ccccc1Sc1ccc2c(/C=C/c3ccccn3)n[nH]c2c1,24
